How the values were obtained:
DOR-eGFP [1] = biological target: T1, DOR-eGFP (Mus musculus, UniProt P32300); assay: DOR-eGFP internalization, confocal imaging; conditions: agonist, 1 μmol/L; blocked by naltrindole
human MOR (CHO cells) = human MOR (CHO cells) (Homo sapiens, UniProt P35372); assay: […]GTPγS binding, CHO membranes; type: biochemical; conditions: 10 μmol/L GDP, pH 7.4, RT; no G protein activation
DOR-eGFP [2] = biological target: T1, DOR-eGFP; assay: DOR-eGFP internalization, confocal imaging; conditions: agonist; control 73.8 ± 2.6%; myenteric neurons of colon

T1 sequence (P32300 whole entry): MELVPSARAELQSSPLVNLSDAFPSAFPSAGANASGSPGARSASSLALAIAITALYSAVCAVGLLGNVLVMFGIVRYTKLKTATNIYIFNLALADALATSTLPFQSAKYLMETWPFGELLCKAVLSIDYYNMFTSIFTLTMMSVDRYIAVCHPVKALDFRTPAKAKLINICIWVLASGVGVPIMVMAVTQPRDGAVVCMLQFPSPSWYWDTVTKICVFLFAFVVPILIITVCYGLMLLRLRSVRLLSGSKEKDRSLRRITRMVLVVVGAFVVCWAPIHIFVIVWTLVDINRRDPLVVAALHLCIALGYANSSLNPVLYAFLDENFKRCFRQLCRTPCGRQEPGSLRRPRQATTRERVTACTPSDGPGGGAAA
human MOR (CHO cells), sequence (P35372 whole entry): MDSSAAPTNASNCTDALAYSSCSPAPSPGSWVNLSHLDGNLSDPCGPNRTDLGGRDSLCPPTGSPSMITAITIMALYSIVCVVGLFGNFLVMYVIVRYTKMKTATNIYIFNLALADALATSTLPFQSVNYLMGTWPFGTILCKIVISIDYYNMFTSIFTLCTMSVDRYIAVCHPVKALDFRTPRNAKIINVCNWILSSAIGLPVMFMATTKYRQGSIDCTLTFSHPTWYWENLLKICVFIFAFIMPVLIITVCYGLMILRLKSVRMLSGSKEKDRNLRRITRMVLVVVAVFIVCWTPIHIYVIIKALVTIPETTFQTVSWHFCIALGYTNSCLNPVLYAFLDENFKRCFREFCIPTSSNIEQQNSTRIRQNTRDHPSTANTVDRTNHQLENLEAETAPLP

Q: `CCOC(=O)C1(CCc2ccccc2)CCN(Cc2ccc(NC(C)=O)cc2)CC1` [CYM51010] was tested. Which “DOR-eGFP internalization, confocal imaging” value (DOR-eGFP [1]) did it give?
A: The value was “CYM51010 promoted robust internalization of DOR-eGFP in both myenteric and submucosal neurons”.

Q: And the “[35S]GTPγS binding, CHO membranes” value (human MOR (CHO cells))?
A: Its value is “increase in G protein activation only in DOR expressing CHO cells”.

Q: For `C=CCN1C[C@H](C)N([C@H](c2ccc(C(=O)N(CC)CC)cc2)c2cccc(OC)c2)C[C@H]1C` [SNC80], which “% cell surface DOR-eGFP at 1 μmol/L” value (DOR-eGFP [2]) is on record?
A: Its value is 41.9 ± 2.9%.

From PMC7036548 (Cellular and Molecular Gastroenterology and Hepatology, 2019)
